Key:
Format in all cases: in vivo
[1] = test system: ALOMY; test: Pre-emergence herbicidal activity, glasshouse pot test; conditions: rate 1000 g/Ha, evaluated after 13 days, scale 0-5
Protocol: (§1) Seeds of a variety of test species were sown in standard soil in pots. After cultivation for one day (pre-emergence) under controlled conditions in a glasshouse (at 24/16° C., day/night; 14 hours light; 65% humidity), the plants were sprayed with an aqueous spray solution derived from the formulation of the technical active ingredient in acetone/water (50:50) solution containing 0.5% Tween 20 (polyoxyethelyene sorbitan monolaurate, CAS RN 9005-64-5). The test plants were then grown in a glasshouse under controlled conditions (at 24/16° C., day/night; 14 hours light; 65% humidity) and watered twice daily. After 13 days, the test was evaluated (5=total damage to plant; 0=no damage to plant).

[2] = test system: AMARE; test: as above; conditions: rate 1000 g/Ha, evaluated after 13 days, scale 0-5
Protocol: as §1

[3] = test system: ECHCG; test: as above; conditions: rate 1000 g/Ha, evaluated after 13 days, scale 0-5
Protocol: as §1

[4] = test system: SETFA; test: as above; conditions: rate 1000 g/Ha, evaluated after 13 days, scale 0-5
Protocol: as §1

[5] = test system: ABUTH; test: Post-emergence herbicidal activity, glasshouse pot test; conditions: Abutilon theophrasti; application post-emergence; rate 1000 g/Ha; evaluated after 13 days
Protocol: (§2) Seeds of a variety of test species were sown in standard soil in pots. After 8 days cultivation (post-emergence) under controlled conditions in a glasshouse (at 24/16° C., day/night; 14 hours light; 65% humidity), the plants were sprayed with an aqueous spray solution derived from the formulation of the technical active ingredient in acetone/water (50:50) solution containing 0.5% Tween 20 (polyoxyethelyene sorbitan monolaurate, CAS RN 9005-64-5). The test plants were then grown in a glasshouse under controlled conditions (at 24/16° C., day/night; 14 hours light; 65% humidity) and watered twice daily. After 13 days, the test was evaluated (5=total damage to plant; 0=no damage to plant).

[6] = test system: ALOMY; test: as above; conditions: Alopecurus myosuroides; application post-emergence; rate 1000 g/Ha; evaluated after 13 days
Protocol: as §2

[7] = test system: AMARE; test: as above; conditions: Amaranthus retroflexus; application post-emergence; rate 1000 g/Ha; evaluated after 13 days
Protocol: as §2

[8] = test system: ECHCG; test: as above; conditions: Echinochloa crus-galli; application post-emergence; rate 1000 g/Ha; evaluated after 13 days
Protocol: as §2

[9] = test system: SETFA; test: as above; conditions: Setaria faberi; application post-emergence; rate 1000 g/Ha; evaluated after 13 days
Protocol: as §2

[10] = test system: ZEAMX; test: as above; conditions: Zea mays; application post-emergence; rate 1000 g/Ha; evaluated after 13 days
Protocol: as §2

[11] = test system: ABUTH; test: Pre-emergence herbicidal activity, glasshouse pot test; conditions: rate 1000 g/Ha, evaluated after 13 days, scale 0-5
Protocol: as §1

[12] = test system: ZEAMX; test: as above; conditions: rate 1000 g/Ha, evaluated after 13 days, scale 0-5
Protocol: as §1

| SMILES | ALOMY damage score, application pre-emergence [1] | AMARE damage score, application pre-emergence [2] | ECHCG damage score, application pre-emergence [3] | SETFA damage score, application pre-emergence [4] | Post-emergence herbicidal activity ABUTH (damage score 0-5) [5] | Post-emergence herbicidal activity ALOMY (damage score 0-5) [6] | Post-emergence herbicidal activity AMARE (damage score 0-5) [7] | Post-emergence herbicidal activity ECHCG (damage score 0-5) [8] | Post-emergence herbicidal activity SETFA (damage score 0-5) [9] | Post-emergence herbicidal activity ZEAMX (damage score 0-5) [10] | ABUTH damage score, application pre-emergence [11] | ZEAMX damage score, application pre-emergence [12] |
| --- | --- | --- | --- | --- | --- | --- | --- | --- | --- | --- | --- | --- |
| CCOC1C(O)N(c2cc(C(F)(F)F)c(-c3cncnc3)cn2)C(=O)N1C (stereo not drawn) [Compound A14] | 4 | 5 | 5 | 5 | 5 | 4 | 5 | 5 | 5 | 3 | – | – |
| C#CCN1C(=O)N(c2cc(C(F)(F)F)ccn2)C(O)C1C (stereo not drawn) [Compound A87] | – | 5 | 4 | 4 | 5 | – | 5 | 5 | 5 | 4 | 5 | 3 |
| CCN1C(=O)N(c2cc(C(F)(F)F)ccn2)C(O)C1C (stereo not drawn) [Compound A88] | – | 5 | 4 | 4 | 5 | – | 5 | 5 | 5 | 3 | 5 | 2 |
| COC(C)(C)c1ccnc(N2C(=O)N(C)C(C)C2O)c1 (stereo not drawn) [Compound A89] | – | 5 | 4 | 4 | 5 | – | 5 | 5 | 5 | 3 | 5 | 2 |
| CON1C(=O)N(c2cc(C(F)(F)Cl)ccn2)C(O)[C@@H]1C (stereo partly drawn) [Compound A90] | – | 5 | 4 | 4 | 5 | – | 5 | 5 | 5 | 5 | 3 | 2 |
| CC1NC(=O)N(c2cc(C(F)(F)Cl)ccn2)C1O (stereo not drawn) [Compound A91] | – | 5 | 4 | 4 | 5 | – | 5 | 5 | 4 | 3 | 5 | 2 |
| CC1C(O)N(c2cc(Cl)ccn2)C(=O)N1C (stereo not drawn) [Compound A92] | – | 5 | 5 | 4 | 5 | – | 5 | 5 | 5 | 4 | 5 | 3 |
| CCN1CC(O)N(c2cc(C(F)(F)F)ccn2)C1=O (stereo not drawn) [Compound A95] | – | 5 | 5 | 5 | 5 | – | 5 | 5 | 5 | 2 | 5 | 1 |
| CCO[C@@H]1[C@@H](OC(=O)[C@](OC)(c2ccccc2)C(F)(F)F)N(c2cc(C(F)(F)F)ccn2)C(=O)N1C [Compound A102] | – | 5 | 4 | 3 | 5 | – | 5 | 2 | 1 | 1 | 5 | 1 |
| CCO[C@H]1[C@H](OC(=O)[C@](OC)(c2ccccc2)C(F)(F)F)N(c2cc(C(F)(F)F)ccn2)C(=O)N1C [Compound A103] | – | 2 | 1 | 4 | 0 | – | 2 | 0 | 1 | 1 | 1 | 1 |
| CON1C(=O)N(c2cc(C(F)(F)F)ccn2)C(NCc2ccccc2)[C@@H]1C (stereo partly drawn) [Compound A104] | – | 5 | 5 | 5 | 5 | – | 5 | 5 | 5 | 5 | 4 | 3 |
| COCc1cnc(N2C(=O)N(C)C(C)C2O)cc1C(F)(F)F (stereo not drawn) [Compound A105] | – | 5 | 5 | 5 | 5 | – | 5 | 5 | 5 | 5 | 5 | 4 |
| CC1C(O)N(c2cc(C(F)(F)F)ccn2)C(=O)N1C(F)F (stereo not drawn) [Compound A106] | – | 5 | 4 | 3 | 5 | – | 5 | 4 | 4 | 1 | 5 | 2 |
| C=CCN1C(=O)N(c2cc(C(F)(F)F)ccn2)C(O)C1C (stereo not drawn) [Compound A107] | – | 5 | 5 | 4 | 5 | – | 5 | 5 | 5 | 3 | 5 | 2 |
| COCCOCc1cnc(N2C(=O)N(C)C(C)C2O)cc1C(F)(F)F (stereo not drawn) [Compound A108] | – | 5 | 5 | 4 | 5 | – | 5 | 5 | 5 | 5 | 5 | 2 |

— patent publication US11608323B2 (SYNGENTA LIMITED, priority 2013, dated 2023)
